{"source": "paper PMC4882560", "about": "“Polyketides from the Mangrove-Derived Endophytic Fungus Nectria sp. HN001 and Their α-Glucosidase Inhibitory Activity” (Marine Drugs, 2016)", "biological_target": "α-Glucosidase from Saccharomyces cerevisiae", "test": "In vitro α-glucosidase inhibitory activity (UV absorbance at 405 nm, p-nitrophenyl glycoside substrate)", "format": "biochemical", "conditions": "for IC50: mean ± SD from three parallel measurements, phosphate buffer pH 7.0, 37 °C, absorbance at 405 nm, read-out: IC50, inhibitory effects against α-glucosidase; for α-glucosidase inhibitory activity (result in words): compared to positive control acarbose", "description": "Optical rotations were measured on a Bellingham-Stanley ADP 440+ polarimeter at 25 °C. IR data were recorded on a Nicolet 5DX-FTIR (Thermo Fisher Scientific, Inc., Hudson, NH, USA), in KBr discs. UV data were recorded on a Shimadzu UV-240 spectrophotometer (Shimadzu, Kyoto, Japan). The ^1H NMR (500 MHz), ^13C NMR (125 MHz), and 2D NMR spectra were obtained on a Bruker AVANCE-500 (Bruker BioSpin Corporation, Billerica, MA, USA) using TMS as an internal reference. HRESIMS were acquired on a Thermofisher LTQ Orbitrp Elite LC-MS spectrometer (Thermo Fisher Scientific, Inc., Hudson, NH, USA), and the ESIMS data were measured on a Micro Mass Q-TOF spectrometer (Waters Corporation, Milford, MA, USA). TLC analysis was carried out on silica gel plates (Marine Chemical Ltd., Qingdao, China). RP-C18 silica gel (Fuji, 40–75 μm, Fuji Silysia Chemical Ltd., Kasugai, Japan), Silica gel (200–300 mesh, Marine Chemical Ltd., Qingdao, China), High silica gel (H, Marine Chemical Ltd., Qingdao, China), and Sephadex LH-20 (GE Healthcare Bio-Sciences AB, Stockholm, Sweden) were used for column chromatography (CC).\nAn assay of α-glucosidase inhibitory activity was performed using a reported method, with slight modifications. All the assays were performed using 0.01 M KH2PO4-K2HPO4 buffers, pH 7.0, and a Bio-Rad iMark microplate reader (Bio-Rad Laboratories, Inc., Kyoto, Japan). Enzyme solution was prepared to give 2.0 Units/mL in 2 mL aliquots. The assay medium contained phosphate buffer, pH 7.0 (130 μL), 10 μL of enzyme solution, 20 μL of DMSO or inhibitor (dissolved in DMSO), and 40 μL of substrate (p-nitrophenyl glycoside, 3 mg/mL). The substrate was added to the assay medium containing enzyme and buffer with inhibitor added after 15 min of incubation time at 37 °C. The activity was determined by measuring the increase in absorbance at 405 nm for a 1 min interval. Calculations were performed according to the equation: η (%) = [(B − S)/B] × 100%\n(B stands for the assay medium with DMSO; S stands for the assay medium with inhibitor). All measurements were done in triplicate from two independent experiments. The reported IC50 was the average value of two independent experiments.", "data": [{"compound": "CC(/C=C/C(=O)O)=C\\C=C\\C(C)=C\\C(C)=C\\C(=O)O", "note": "[Compound 1, 2E, 4E, 6E, 8E, 10E-3,5,9-trimethyldodeca-2,4,6,8, 10-pentaenedioic acid]", "values": [{"measurement": "IC50", "value": "121.8 ± 0.4", "unit": "µM"}]}, {"compound": "COC(=O)/C=C/C(C)=C/C=C/C(C)=C/C(C)=C/C(=O)O", "note": "[Compound 2, 2E, 4E, 6E, 8E, 10E-12-methoxy-3,5,9-trimethyl-12-oxododeca-2,4,6,8, 10-pentaenoic acid]", "values": [{"measurement": "α-glucosidase inhibitory activity (result in words)", "value": "significant inhibitory activity"}, {"measurement": "IC50", "value": "23.5 ± 0.3", "unit": "µM"}]}, {"compound": "COC(=O)/C=C/C(C)=C/C=C/C(C)=C\\C(C)=C\\C(=O)O", "note": "[Compound 3, 2E, 4Z, 6E, 8E, 10E-12-methoxy-3,5,9-trimethyl-12-oxododeca-2,4,6,8, 10-pentaenoic acid]", "values": [{"measurement": "α-glucosidase inhibitory activity (result in words)", "value": "significant inhibitory activity"}, {"measurement": "IC50", "value": "42.3 ± 0.2", "unit": "µM"}]}, {"compound": "C[C@H](O)C[C@@H](O)Cc1cc2cc(O)cc(O)c2c(=O)o1", "note": "[Compound 4, 12-epicitreoisocoumarinol]", "values": [{"measurement": "IC50", "value": "343.7 ± 1", "unit": "µM"}]}, {"compound": "C[C@@H](O)C[C@@H](O)Cc1cc2cc(O)cc(O)c2c(=O)o1", "note": "[Compound 5, citreoisocoumarinol]", "values": [{"measurement": "IC50", "value": "392.5 ± 1.7", "unit": "µM"}]}, {"compound": "CC(=O)C[C@@H](O)Cc1cc2cc(O)cc(O)c2c(=O)o1", "note": "[Compound 6, citreoisocoumarin]", "values": [{"measurement": "IC50", "value": "538.7 ± 4.3", "unit": "µM"}]}, {"compound": "Cc1cc(=O)cc(Cc2cc(O)cc(O)c2)o1", "note": "[Compound 7, macrocarpon C]", "values": [{"measurement": "α-glucosidase inhibitory activity (result in words)", "value": "did not display inhibitory activity"}, {"measurement": "IC50", "value": "> 900", "unit": "µM"}]}]}
